Data as given in patent publication US10227331B2 (priority 2015, dated 2019).

Key:
IMP-1 = IMP-1 (Serratia marcescens, UniProt P52699); experiment: biochemical; assay type: biochemical; conditions: CCF2-FA substrate, 2 hours at 25° C; read-out: IMP-1 IC50
Procedure, shortened: (§1)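 Fluorescence assay, CCF2-FA substrate (cephalosporin core linking 7-hydroxycoumarin to fluorescein); inhibitor + MBL + substrate, 2 h, 25° C. IC50 by 4-parameter fit, semi-log plot.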

NDM-1 = NDM-1 (Klebsiella pneumoniae, UniProt C7C422); experiment: biochemical; assay type: biochemical; conditions: CCF2-FA substrate, 2 hours at 25° C; read-out: NDM-1 IC50
Procedure, shortened: as §1

VIM-1 = VIM-1 (Pseudomonas aeruginosa (strain ATCC 15692 / DSM 22644 / CIP 104116 / JCM 14847 / LMG 12228 / 1C / PRS 101 / PAO1), UniProt A0A0F7KYQ8); experiment: biochemical; conditions: CCF2-FA substrate, 2 hours at 25° C
Procedure, shortened: as §1

[1] = test system: Escherichia coli expressing NDM-1 (CLB30005, CLB30016); assay type: cell-based; conditions: with imipenem 1 μg/ml, 95% inhibition of bacterial growth; for Escherichia coli MITC95: NDM-1 (CLB30016)
Procedure, shortened: (§2)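 Colonies from overnight 35 °C blood-agar cultures were suspended in saline, diluted 1:100 into 1.1× CAMHB and exposed to test compound with or without imipenem at 1 μg/ml. After 22–24 h at 35 °C, absorbance was read to find the concentration restoring imipenem susceptibility.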

[2] = test system: Klebsiella pneumoniae expressing VIM-1 (IHMA599644); assay type: cell-based; conditions: with imipenem 1 μg/ml, 95% inhibition of bacterial growth; for Klebsiella pneumoniae MITC95: VIM-1 (IHMA599644)
Procedure, shortened: as §2

[3] = test system: Serratia marcescens expressing IMP-1 (CL5741); assay type: cell-based; conditions: with imipenem 1 μg/ml, 95% inhibition of bacterial growth; for Serratia marcescens MITC95: IMP-1 (CL5741)
Procedure, shortened: as §2

[4] = test system: P. aeruginosa expressing IMP-1, efflux+ (MB9798); assay type: cell-based, Pseudomonas aeruginosa; conditions: for P. aeruginosa expressing IMP-1, efflux+ (MB9798) MITC95: imipenem at 2 μg/mL, in the presence of a class A, C, D serine β-lactamase inhibitor closely related to relebactam; for Efflux ratio: ratio MITC95 PA_9798/MITC95 PA_9799
Source text: (§3) The strain background is Pseudomonas aeruginosa PAO1.

[5] = test system: P. aeruginosa expressing IMP-1, efflux− (MB9799); experiment: Efflux: concentration of MBL inhibitor which restores susceptibility to imipenem; assay type: cell-based, Pseudomonas aeruginosa; conditions: imipenem at 2 μg/mL, in the presence of a class A, C, D serine β-lactamase inhibitor closely related to relebactam
Source text: as §3

Sequence of NDM-1 (C7C422 whole entry, looked up, species assumed): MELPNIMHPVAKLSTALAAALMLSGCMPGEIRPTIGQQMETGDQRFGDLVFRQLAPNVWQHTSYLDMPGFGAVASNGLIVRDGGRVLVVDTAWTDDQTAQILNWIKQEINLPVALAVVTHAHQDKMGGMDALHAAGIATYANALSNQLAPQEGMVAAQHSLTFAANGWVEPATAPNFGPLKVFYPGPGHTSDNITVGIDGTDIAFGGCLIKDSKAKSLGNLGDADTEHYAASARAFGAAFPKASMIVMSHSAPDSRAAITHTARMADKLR
Sequence of IMP-1 (P52699 whole entry, looked up, species assumed): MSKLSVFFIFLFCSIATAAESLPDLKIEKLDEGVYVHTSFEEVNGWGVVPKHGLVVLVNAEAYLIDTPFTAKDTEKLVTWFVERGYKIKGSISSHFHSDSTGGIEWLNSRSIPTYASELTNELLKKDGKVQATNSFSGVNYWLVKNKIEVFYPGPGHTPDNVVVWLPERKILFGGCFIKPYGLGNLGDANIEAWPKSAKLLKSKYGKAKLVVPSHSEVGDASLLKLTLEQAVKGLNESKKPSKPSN

C[C@@H](N)CS(=O)(=O)c1ccc(-c2cccc3[nH]c(N)nc23)c(-c2nn[nH]n2)c1S(N)(=O)=O [Example 267, 3-(2-amino-1H-benzo[d]imidazol-4-yl)-6-((R)-2-aminopropylsulfonyl)-2-(2H-tetrazol-5-yl)benzenesulfonamide]
IC50 (IMP-1): 0.964 nM | IC50 (NDM-1): 0.213 nM | IC50 (VIM-1): 0.517 nM | Escherichia coli MITC95 [1]: 0.3906 µM | Klebsiella pneumoniae MITC95 [2]: 1.563 µM | Serratia marcescens MITC95 [3]: 0.7813 µM | P. aeruginosa expressing IMP-1, efflux+ (MB9798) MITC95 [4]: 0.7813 µM | Efflux ratio [4]: 1.00 | P. aeruginosa expressing IMP-1, efflux− (MB9799) MITC95 [5]: 0.7813 µM

NS(=O)(=O)c1c(S(=O)(=O)C2CNC2)ccc(-c2ccnc(N3CCNC3=O)c2)c1-c1nnn[nH]1 [Example 343, 6-(Azetidin-3-ylsulfonyl)-3-(2-(2-oxoimidazolidin-1-yl)pyridin-4-yl)-2-(1H-tetrazol-5-yl)benzenesulfonamide]
IC50 (IMP-1): 1.89 nM | IC50 (NDM-1): 0.51 nM | IC50 (VIM-1): 0.198 nM | Escherichia coli MITC95 [1]: 3.125 µM | Klebsiella pneumoniae MITC95 [2]: 6.25 µM | Serratia marcescens MITC95 [3]: 3.125 µM | P. aeruginosa expressing IMP-1, efflux+ (MB9798) MITC95 [4]: 25 µM | Efflux ratio [4]: 15.99 | P. aeruginosa expressing IMP-1, efflux− (MB9799) MITC95 [5]: 1.563 µM

NS(=O)(=O)c1c(S(=O)(=O)C2CNC2)ccc(-c2csc(N3CCOCC3)n2)c1-c1nnn[nH]1.O=C(O)C(F)(F)F [Example 124, 3-((4-(2-morpholinothiazol-4-yl)-2-sulfamoyl-3-(1H-tetrazol-5-yl)phenyl)sulfonyl)azetidin-1-ium 2,2,2-trifluoroacetate]
IC50 (IMP-1): 6.1 nM | IC50 (NDM-1): 1.5 nM | IC50 (VIM-1): 4.95 nM | Escherichia coli expressing NDM-1 (CLB30016) MITC95 [1]: 3.125 µM | Klebsiella pneumoniae expressing VIM-1 (IHMA599644) MITC95 [2]: 12.5 µM | Serratia marcescens expressing IMP-1 (CL5741) MITC95 [3]: 6.25 µM | P. aeruginosa expressing IMP-1, efflux+ (MB9798) MITC95 [4]: 200 µM | Efflux ratio [4]: 127.96 | P. aeruginosa expressing IMP-1, efflux− (MB9799) MITC95 [5]: 1.563 µM

NCCS(=O)(=O)c1ccc(-c2ccc3nncn3c2)c(-c2nnn[nH]2)c1S(N)(=O)=O.O=C(O)C(F)(F)F [Example 146, 2-((4-([1,2,4]triazolo[4,3-a]pyridin-6-yl)-2-sulfamoyl-3-(1H-tetrazol-5-yl)phenyl)sulfonyl)ethanaminium 2,2,2-trifluoroacetate]
IC50 (IMP-1): 44.4 nM | IC50 (NDM-1): 20.6 nM | IC50 (VIM-1): 1.32 nM | Escherichia coli expressing NDM-1 (CLB30016) MITC95 [1]: 0.7813 µM | Klebsiella pneumoniae expressing VIM-1 (IHMA599644) MITC95 [2]: 6.25 µM | Serratia marcescens expressing IMP-1 (CL5741) MITC95 [3]: 3.125 µM | P. aeruginosa expressing IMP-1, efflux+ (MB9798) MITC95 [4]: 100 µM | Efflux ratio [4]: 63.98 | P. aeruginosa expressing IMP-1, efflux− (MB9799) MITC95 [5]: 1.563 µM

NS(=O)(=O)c1c(S(=O)(=O)C2CNC2)ccc(-c2cnn3c2CCCC3)c1-c1nnn[nH]1.O=C(O)C(F)(F)F [Example 129, 3-((2-sulfamoyl-4-(4,5,6,7-tetrahydropyrazolo[1,5-a]pyridin-3-yl)-3-(1H-tetrazol-5-yl)phenyl)sulfonyl)azetidin-1-ium 2,2,2-trifluoroacetate]
IC50 (IMP-1): 2.63 nM | IC50 (NDM-1): 0.647 nM | IC50 (VIM-1): 1.24 nM | Escherichia coli expressing NDM-1 (CLB30016) MITC95 [1]: 6.25 µM | Klebsiella pneumoniae expressing VIM-1 (IHMA599644) MITC95 [2]: 6.25 µM | Serratia marcescens expressing IMP-1 (CL5741) MITC95 [3]: 6.25 µM | P. aeruginosa expressing IMP-1, efflux+ (MB9798) MITC95 [4]: 25 µM | Efflux ratio [4]: 15.99 | P. aeruginosa expressing IMP-1, efflux− (MB9799) MITC95 [5]: 1.563 µM

NC(=O)c1ccc(-c2ccc(S(=O)(=O)C3CNC3)c(S(N)(=O)=O)c2-c2nn[nH]n2)c2nc(N)sc12 [Example 39, 2-amino-4-(4-(azetidin-3-ylsulfonyl)-3-sulfamoyl-2-(2H-tetrazol-5-yl)phenyl)benzo[d]thiazole-7-carboxamide]
IC50 (IMP-1): 0.276 nM | IC50 (NDM-1): 0.0303 nM | IC50 (VIM-1): 0.129 nM | Escherichia coli expressing NDM-1 (CLB30016) MITC95 [1]: 1.563 µM | Klebsiella pneumoniae expressing VIM-1 (IHMA599644) MITC95 [2]: 3.125 µM | Serratia marcescens expressing IMP-1 (CL5741) MITC95 [3]: 3.125 µM | P. aeruginosa expressing IMP-1, efflux+ (MB9798) MITC95 [4]: 0.7813 µM | Efflux ratio [4]: 0.50 | P. aeruginosa expressing IMP-1, efflux− (MB9799) MITC95 [5]: 1.563 µM

NCCS(=O)(=O)c1ccc(-c2ccc3scnc3c2)c(-c2nnn[nH]2)c1S(N)(=O)=O.O=C(O)C(F)(F)F [Example 174, 2-((4-(benzo[d]thiazol-5-yl)-2-sulfamoyl-3 (1H-tetrazol-5-yl)phenyl)sulfonyl)ethanaminium 2,2,2-trifluoroacetate]
IC50 (IMP-1): 0.22 nM | IC50 (NDM-1): 0.392 nM | IC50 (VIM-1): 0.14 nM | Escherichia coli expressing NDM-1 (CLB30016) MITC95 [1]: 0.3906 µM | Klebsiella pneumoniae expressing VIM-1 (IHMA599644) MITC95 [2]: 1.563 µM | Serratia marcescens expressing IMP-1 (CL5741) MITC95 [3]: 0.7813 µM | P. aeruginosa expressing IMP-1, efflux+ (MB9798) MITC95 [4]: 3.125 µM | Efflux ratio [4]: 8.00 | P. aeruginosa expressing IMP-1, efflux− (MB9799) MITC95 [5]: 0.3906 µM

Nc1nccc(-c2ccc(S(=O)(=O)C3CNC3)c(S(N)(=O)=O)c2-c2nn[nH]n2)c1N [Example 224, 6-(azetidin-3-ylsulfonyl)-3-(2,3-diaminopyridin-4-yl)-2-(2H-tetrazol-5-yl)benzenesulfonamide]
IC50 (IMP-1): 2.58 nM | IC50 (NDM-1): 0.618 nM | IC50 (VIM-1): 1.29 nM | Escherichia coli expressing NDM-1 (CLB30016) MITC95 [1]: 0.7813 µM | Klebsiella pneumoniae expressing VIM-1 (IHMA599644) MITC95 [2]: 3.125 µM | Serratia marcescens expressing IMP-1 (CL5741) MITC95 [3]: 3.125 µM | P. aeruginosa expressing IMP-1, efflux+ (MB9798) MITC95 [4]: 3.125 µM | Efflux ratio [4]: 2.00 | P. aeruginosa expressing IMP-1, efflux− (MB9799) MITC95 [5]: 1.563 µM

NCCS(=O)(=O)c1ccc(-c2cccc3c2nc(N)n3CC(F)(F)F)c(-c2nn[nH]n2)c1S(N)(=O)=O [Example 18, 3-(2-Amino-1-(2,2,2-trifluoroethyl)-1H-benzo[d]imidazol-4-yl)-6-((2-aminoethyl)sulfonyl)-2-(2H-tetrazol-5-yl)benzenesulfonamide]
IC50 (IMP-1): 0.227 nM | IC50 (NDM-1): 0.442 nM | IC50 (VIM-1): 0.361 nM | Escherichia coli expressing NDM-1 (CLB30016) MITC95 [1]: 1.563 µM | Klebsiella pneumoniae expressing VIM-1 (IHMA599644) MITC95 [2]: 3.125 µM | Serratia marcescens expressing IMP-1 (CL5741) MITC95 [3]: 3.125 µM | P. aeruginosa expressing IMP-1, efflux+ (MB9798) MITC95 [4]: 3.125 µM | Efflux ratio [4]: 2.00 | P. aeruginosa expressing IMP-1, efflux− (MB9799) MITC95 [5]: 1.563 µM

Cn1nnc2ccc(-c3ccc(S(=O)(=O)C4CNC4)c(S(N)(=O)=O)c3-c3nnn[nH]3)cc21.O=C(O)C(F)(F)F [Example 119, 3-((4-(1-methyl-1H-benzo[d][1,2,3]triazol-6-yl)-2-sulfamoyl-3-(1H-tetrazol-5-yl)phenyl)sulfonyl)azetidin-1-ium 2,2,2-trifluoroacetate]
IC50 (IMP-1): 5.74 nM | IC50 (NDM-1): 1.8 nM | IC50 (VIM-1): 0.506 nM | Escherichia coli expressing NDM-1 (CLB30016) MITC95 [1]: 6.25 µM | Klebsiella pneumoniae expressing VIM-1 (IHMA599644) MITC95 [2]: 6.25 µM | Serratia marcescens expressing IMP-1 (CL5741) MITC95 [3]: 6.25 µM | P. aeruginosa expressing IMP-1, efflux+ (MB9798) MITC95 [4]: 100 µM | Efflux ratio [4]: 63.98 | P. aeruginosa expressing IMP-1, efflux− (MB9799) MITC95 [5]: 1.563 µM

Nc1nc2c(-c3ccc(S(=O)(=O)C4CNC4)c(S(N)(=O)=O)c3-c3nn[nH]n3)cccc2s1 [Example 317, 3-(2-aminobenzo[d]thiazol-4-yl)-6-(azetidin-3-ylsulfonyl)-2-(2H-tetrazol-5-yl)benzenesulfonamide]
IC50 (IMP-1): 0.227 nM | IC50 (NDM-1): 0.0312 nM | IC50 (VIM-1): 0.189 nM | Escherichia coli MITC95 [1]: 1.172 µM | Klebsiella pneumoniae MITC95 [2]: 1.563 µM | Serratia marcescens MITC95 [3]: 0.7813 µM | P. aeruginosa expressing IMP-1, efflux+ (MB9798) MITC95 [4]: 0.7813 µM | Efflux ratio [4]: 1.00 | P. aeruginosa expressing IMP-1, efflux− (MB9799) MITC95 [5]: 0.7813 µM
